According to BindingDB's records for doi:10.1016/j.bmcl.2015.12.063 (Aristotelian University of Thessaloniki, 2016):
pIC50: −log10 of the molar value.

Assay: Inhibition of soybean lipoxygenase assessed as formation of 13-hydroperoxylinoleic acid after 7 mins

With `COc1ccc2cc(C(C)C(=O)N3CCSCC3)ccc2c1` (stereo unspecified) the pIC50 was 4.92.
